Results: patent publication US7759382B2, “Acylated amino acid amidyl pyrazoles and related compounds” (Elan Pharmaceuticals, Inc., priority 2003, dated 2010)

Tested on: β-amyloid peptide release and/or its synthesis
Experiment: inhibition of β-amyloid peptide release and/or its synthesis (test not specified)
Assay type: cell-based
Details: statement in words only; no assay or value given

| Structure (SMILES) | inhibits β-amyloid peptide release and/or its synthesis |
| --- | --- |
| CC(C)(C)c1cc(NC(=O)c2cccc(N(C=O)Cc3cc(F)cc(F)c3)c2)[nH]n1 [Example 110] | inhibits β-amyloid peptide release and/or its synthesis |
| CC(C)(C)c1cc(NC(=O)c2cccc(Nc3cc(F)cc(F)c3)c2)[nH]n1 [Example 111, N-(5-tert-Butyl-2H-pyrazol-3-yl)-3-(3,5-difluoro-phenylamino)-benzamide] | inhibits β-amyloid peptide release and/or its synthesis |
